Test results: US20250074871A1, “PHENETHYLAMINES AND METHODS OF PREPARATION THEREOF” (priority 2022, published 2025)
Read-outs that look alike come from different tables or passages of the source.

What was measured:
Assay type in all cases: cell-based
5-HT2A receptor = target: T1, 5-HT2A receptor (Homo sapiens, UniProt P28223); test: 5-HT2A Gq dissociation BRET functional assay; conditions: Table 2; for 5-HT2A BRET Eff %: normalized to % 5-HT stimulation; for EC50: at least three replicate trials
T1 construct: expressed in transfected cells; host or cells: HEK293T

5-HT2B receptor = target: T2, 5-HT2B receptor (Homo sapiens, UniProt P41595); test: 5-HT2B Gq dissociation BRET functional assay; conditions: Table 2; for EC50: 5-HT2B BRET EC50 (nM), at least three replicate trials; for 5-HT2B BRET Eff %: normalized to % 5-HT stimulation
T2 construct: expressed in transfected cells; host or cells: HEK293T

5-HT2C receptor = target: T3, 5-HT2C receptor (Homo sapiens, UniProt P28335); test: cell-based; conditions: Table 2; for EC50: at least three replicate trials, read-out: 5-HT2C BRET EC50; for 5-HT2C BRET Eff %: normalized to % 5-HT stimulation
T3 construct: expressed in transfected cells; host or cells: HEK293T
T3 sequence (P28335 33-458): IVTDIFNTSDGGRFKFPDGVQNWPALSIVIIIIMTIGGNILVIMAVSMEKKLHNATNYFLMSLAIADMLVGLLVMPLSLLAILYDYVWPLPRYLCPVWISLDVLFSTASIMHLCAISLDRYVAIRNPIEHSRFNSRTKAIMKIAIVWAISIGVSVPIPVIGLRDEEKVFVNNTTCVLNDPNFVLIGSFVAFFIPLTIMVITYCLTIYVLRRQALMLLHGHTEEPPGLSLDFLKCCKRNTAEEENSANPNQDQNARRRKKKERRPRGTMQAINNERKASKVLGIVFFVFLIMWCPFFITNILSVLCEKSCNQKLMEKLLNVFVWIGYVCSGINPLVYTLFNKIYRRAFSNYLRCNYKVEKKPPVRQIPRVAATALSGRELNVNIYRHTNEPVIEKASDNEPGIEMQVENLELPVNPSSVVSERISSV

T1 sequence (P28223 whole entry): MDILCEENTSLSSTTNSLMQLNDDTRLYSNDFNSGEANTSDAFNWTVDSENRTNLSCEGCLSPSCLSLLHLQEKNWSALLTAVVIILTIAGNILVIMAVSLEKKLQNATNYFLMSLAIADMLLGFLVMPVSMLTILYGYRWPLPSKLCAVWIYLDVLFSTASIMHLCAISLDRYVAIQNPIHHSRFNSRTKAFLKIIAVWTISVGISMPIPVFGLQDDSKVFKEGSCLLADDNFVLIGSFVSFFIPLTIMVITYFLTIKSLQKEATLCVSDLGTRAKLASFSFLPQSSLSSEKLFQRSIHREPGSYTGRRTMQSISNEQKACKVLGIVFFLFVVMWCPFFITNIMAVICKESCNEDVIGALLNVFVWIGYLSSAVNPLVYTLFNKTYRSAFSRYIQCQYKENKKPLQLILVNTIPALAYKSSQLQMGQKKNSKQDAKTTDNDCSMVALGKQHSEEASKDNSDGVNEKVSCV
T2 sequence (P41595 whole entry): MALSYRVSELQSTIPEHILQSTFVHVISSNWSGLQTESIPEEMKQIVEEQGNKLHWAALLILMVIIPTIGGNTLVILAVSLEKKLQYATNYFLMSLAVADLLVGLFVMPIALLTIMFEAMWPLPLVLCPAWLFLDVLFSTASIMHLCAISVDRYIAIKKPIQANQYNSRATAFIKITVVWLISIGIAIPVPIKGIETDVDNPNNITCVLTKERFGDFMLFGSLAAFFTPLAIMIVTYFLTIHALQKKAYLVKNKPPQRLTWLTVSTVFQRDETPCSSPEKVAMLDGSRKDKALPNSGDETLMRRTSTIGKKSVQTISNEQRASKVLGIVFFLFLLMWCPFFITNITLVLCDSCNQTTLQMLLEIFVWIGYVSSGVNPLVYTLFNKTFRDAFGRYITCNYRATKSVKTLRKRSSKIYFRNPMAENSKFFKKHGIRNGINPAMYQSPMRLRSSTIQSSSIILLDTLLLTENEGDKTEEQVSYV

SMILES	5-HT2A BRET Eff % (5-HT2A receptor)	EC50 (5-HT2B receptor)	5-HT2B BRET Eff % (5-HT2B receptor)	EC50 (5-HT2C receptor)	5-HT2C BRET Eff % (5-HT2C receptor)	EC50 (5-HT2A receptor; 5-HT2A BRET EC50 (nM))	5-HT2B BRET EC50 (nM) / Eff % (5-HT2B receptor)	EC50 (5-HT2A receptor; read-out: 5-HT2A BRET EC50)
NCCc1c[nH]c2ccc(O)cc12 [5-hydroxytryptamine (serotonin), 5-hydroxytryptamine, reference compound]	100%							
COc1cc(C#N)c(F)cc1CCNCc1ccccc1O [Cpd #4]	99%	4090 nM	73%	37.5 nM	115%	2.4 nM		
COc1cc(C#N)ccc1CCNCc1ccccc1F [Cpd #6]	81%			2120 nM	130%	381 nM	Inactive	
COc1cc(C#N)ccc1CCNCc1cccc(F)c1 [Cpd #7]	84%			800 nM	126%	133 nM	Inactive	
COc1cc(C#N)ccc1CCNCc1ccc(F)cc1 [Cpd #8]	52%			8740 nM	79%	13100 nM	Inactive	
COc1cc(C#N)ccc1CCNCc1cccc(Cl)c1 [Cpd #13]	69%			1840 nM	96%	393 nM	Inactive	
COc1cc(C#N)ccc1CCNCc1ccc(Cl)cc1 [Cpd #14]	40%			13300 nM	74%	14300 nM	Inactive	
COc1ccc(CNCCc2ccc(C#N)cc2OC)cc1 [Cpd #29]	59%			924 nM	75%	3950 nM	Inactive	
COc1cc(C#N)ccc1CCNC1COc2ccccc21 (stereo not shown) [Cpd #52]	69%			12100 nM	125%		Inactive	1040 nM
COc1cc(C#N)ccc1CCNCc1c(Cl)cccc1Cl [Cpd #58]	79%			2170 nM	85%	496 nM	Inactive	
COc1cc(C#N)ccc1CCNCc1ccc(F)cc1F [Cpd #59]	58%			9930 nM	94%	14100 nM	Inactive	
N#Cc1ccc(CCNCc2cccc3ccsc23)c(O)c1 [Cpd #70]	11%			5400 nM	160%		Inactive	0.3 nM
N#Cc1ccc(CCNCc2cccc3cc[nH]c23)c(O)c1 [Cpd #71]	59%			10700 nM	92%		Inactive	1140 nM
COc1cc(C#N)ccc1CCNCc1cccc2ncn(C)c12 [Cpd #73]	4%			0.04 nM	7%		Inactive	73 nM
COc1cc(C#N)ccc1CCN(C)Cc1ccccc1Cl [Cpd #88]	14%	4980 nM	20%	310000 nM	86%	0.01 nM		
